Source: ChEMBL document CHEMBL2424515, “Identification of novel substrates and structure-activity relationship of cellular uptake mediated by human organic cation transporters 1 and 2” (J Med Chem, 2013)

How the values were obtained:
[1] = target: T1, Solute carrier family 22 member 1 (Homo sapiens, UniProt O15245); assay: Cellular uptake in human HEK293 cells assessed as human OCT1-mediated drug transport at 2.5 uM after 4 mins by LC-MS/MS analysis; format: ADME, cell-based; details: hek293, 4 min
T1 sequence (O15245 whole entry): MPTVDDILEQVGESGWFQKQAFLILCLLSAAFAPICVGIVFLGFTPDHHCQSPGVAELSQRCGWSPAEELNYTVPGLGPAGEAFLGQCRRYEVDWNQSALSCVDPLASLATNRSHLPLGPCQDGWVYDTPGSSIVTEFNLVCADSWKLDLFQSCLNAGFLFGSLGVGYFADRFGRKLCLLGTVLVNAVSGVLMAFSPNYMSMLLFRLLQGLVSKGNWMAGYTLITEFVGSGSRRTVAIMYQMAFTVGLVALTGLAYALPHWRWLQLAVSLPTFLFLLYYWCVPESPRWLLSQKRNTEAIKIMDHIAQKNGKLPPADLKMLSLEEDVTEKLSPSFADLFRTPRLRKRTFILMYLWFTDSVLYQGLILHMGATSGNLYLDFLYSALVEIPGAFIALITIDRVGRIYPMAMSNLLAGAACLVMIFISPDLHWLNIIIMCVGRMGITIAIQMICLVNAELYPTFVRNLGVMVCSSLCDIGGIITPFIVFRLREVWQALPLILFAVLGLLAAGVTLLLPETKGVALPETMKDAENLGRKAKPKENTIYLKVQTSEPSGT

[2] = target: T2, Solute carrier family 22 member 2 (Homo sapiens, UniProt O15244); assay: Cellular uptake in human HEK293 cells assessed as human OCT2-mediated drug transport at 2.5 uM after 4 mins by LC-MS/MS analysis; format: ADME, cell-based; details: hek293, 4 min
T2 sequence (O15244 whole entry): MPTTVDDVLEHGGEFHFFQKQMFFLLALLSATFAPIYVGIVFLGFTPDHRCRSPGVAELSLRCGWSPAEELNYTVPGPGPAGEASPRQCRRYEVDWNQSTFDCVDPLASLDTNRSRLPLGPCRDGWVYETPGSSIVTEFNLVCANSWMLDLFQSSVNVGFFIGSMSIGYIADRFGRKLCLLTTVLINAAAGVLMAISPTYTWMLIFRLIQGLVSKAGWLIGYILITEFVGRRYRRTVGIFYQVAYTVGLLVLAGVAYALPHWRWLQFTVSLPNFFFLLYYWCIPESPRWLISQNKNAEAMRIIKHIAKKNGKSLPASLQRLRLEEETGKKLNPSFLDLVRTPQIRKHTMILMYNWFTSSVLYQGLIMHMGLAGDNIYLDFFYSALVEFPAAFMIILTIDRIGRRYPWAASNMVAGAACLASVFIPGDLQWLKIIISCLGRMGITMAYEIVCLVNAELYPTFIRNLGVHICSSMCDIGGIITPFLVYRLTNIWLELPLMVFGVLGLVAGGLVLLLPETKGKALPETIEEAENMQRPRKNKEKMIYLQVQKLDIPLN

OCT2 (SLC22A2) = target: T3, OCT2 (SLC22A2) (Homo sapiens, UniProt O15244); assay: Cellular uptake in human HEK293 cells assessed as human OCT2-mediated drug transport at 2.5 uM after 4 mins by LC-MS/MS analysis relative to passive uptake; format: ADME, cell-based; details: HEK293 cells expressing human OCT2, read-out: FC
T3 sequence (O15244 whole entry): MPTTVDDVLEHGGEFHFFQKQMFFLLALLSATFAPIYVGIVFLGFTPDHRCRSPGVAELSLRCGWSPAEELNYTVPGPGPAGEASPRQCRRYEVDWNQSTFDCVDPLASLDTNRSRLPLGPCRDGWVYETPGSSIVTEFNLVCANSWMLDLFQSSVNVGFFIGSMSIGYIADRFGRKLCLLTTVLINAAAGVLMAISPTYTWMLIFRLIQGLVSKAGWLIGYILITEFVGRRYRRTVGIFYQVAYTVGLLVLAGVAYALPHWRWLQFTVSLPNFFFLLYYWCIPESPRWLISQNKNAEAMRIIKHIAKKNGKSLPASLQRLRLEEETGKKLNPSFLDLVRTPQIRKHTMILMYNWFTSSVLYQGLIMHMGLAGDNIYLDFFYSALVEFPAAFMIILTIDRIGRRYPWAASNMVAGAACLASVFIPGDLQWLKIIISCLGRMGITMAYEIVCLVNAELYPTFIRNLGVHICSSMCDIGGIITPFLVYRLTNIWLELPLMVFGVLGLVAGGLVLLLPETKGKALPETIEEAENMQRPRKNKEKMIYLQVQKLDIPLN

OCT1 (SLC22A1) = target: T4, OCT1 (SLC22A1) (Homo sapiens, UniProt O15245); assay: Cellular uptake in human HEK293 cells assessed as human OCT1-mediated drug transport at 2.5 uM after 4 mins by LC-MS/MS analysis relative to passive uptake; format: ADME, cell-based; details: HEK293 cells expressing human OCT1, read-out: FC
T4 sequence (O15245 whole entry): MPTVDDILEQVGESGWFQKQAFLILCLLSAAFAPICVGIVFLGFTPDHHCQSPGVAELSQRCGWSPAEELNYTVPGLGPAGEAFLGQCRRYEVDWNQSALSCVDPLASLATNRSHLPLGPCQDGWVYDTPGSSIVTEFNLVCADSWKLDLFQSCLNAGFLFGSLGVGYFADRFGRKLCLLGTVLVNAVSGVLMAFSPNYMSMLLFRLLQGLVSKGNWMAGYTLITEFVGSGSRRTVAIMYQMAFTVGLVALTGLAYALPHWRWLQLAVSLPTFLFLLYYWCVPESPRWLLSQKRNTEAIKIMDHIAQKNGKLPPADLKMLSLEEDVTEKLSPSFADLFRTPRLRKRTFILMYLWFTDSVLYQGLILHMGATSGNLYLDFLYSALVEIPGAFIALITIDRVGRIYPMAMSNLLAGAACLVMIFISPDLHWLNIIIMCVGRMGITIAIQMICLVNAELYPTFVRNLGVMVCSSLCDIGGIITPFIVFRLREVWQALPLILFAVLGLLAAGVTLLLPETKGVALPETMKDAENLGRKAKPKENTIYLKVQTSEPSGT

[3] = substrate: CC[N+](CC)(CC)CC; assay: cells, lysate or membranes named
[4] = substrate: CN/C(=N/CCSCc1nc[nH]c1C)NC#N; assay: cells, lysate or membranes named

Row | Molecule | Drug uptake [1] [pmol/mg] | Drug uptake [2] [pmol/mg] | uptake ratio at 4 min, 2.5 µM (OCT2 (SLC22A2)) | uptake ratio at 4 min, 2.5 µM (OCT1 (SLC22A1)) | Km [3] [µM] | Km [4] [µM]
1 | CNC(=C[N+](=O)[O-])NCCSCc1ccc(CN(C)C)o1 [RANITIDINE] | 600 | 22 | 1.6 | 18 |  | 
2 | N#Cc1ccc(OC2CCNC2)c(-c2cc(C(N)=O)c(NC(N)=O)s2)c1 (racemic) | 1653 | 22 | 1.6 | 39 |  | 
3 | CNS(=O)(=O)Cc1ccc2[nH]cc(CCN(C)C)c2c1 | 620 | 94 | 3.3 | 15 |  | 
4 | NC(=O)Nc1sc(-c2ccccc2O[C@H]2CCNC2)cc1C(N)=O | 1047 | 37 | 1.9 | 26 |  | 
5 | C[N+]1(C)[C@@H]2C[C@@H](OC(=O)C(O)(c3cccs3)c3cccs3)C[C@H]1[C@@H]1O[C@@H]12 [TIOTROPIUM] | 820 | 460 | 39 | 75 |  | 
6 | NC(=O)Nc1sc(-c2ccc(OC3CCNC3)cc2)cc1C(N)=O (racemic) | 1493 | 8.5 | 1.4 | 73 |  | 
7 | CN/C(=N/CCSCc1nc[nH]c1C)NC#N [CIMETIDINE] | 65 | 270 | 15 | 6.5 |  | 
8 | NCCOc1ccccc1-c1nc(C(N)=O)c(NC(N)=O)s1 | 796 | 40 | 1.3 | 13 |  | 
9 | [H]/N=C(/N)N/C(=N/[H])NCCc1ccccc1 [PHENFORMIN] | 570 | 450 | > 35 | > 39 |  | 
10 | CC[N+](C)(CC)CCOC(=O)C(O)(c1ccccc1)C1CCCCC1 (centres undefined) [OXYPHENONIUM] | 640 | 230 | 14 | 25 |  | 
11 | NC(=O)Nc1sc(-c2ccccc2O[C@@H]2CCNC2)cc1C(N)=O | 586 | 6.6 | 1.1 | 15 |  | 
12 | O=C(NCCNCC(O)COc1ccc(O)cc1)N1CCOCC1 (centres undefined) [XAMOTEROL] | 230 | 5.2 | 1.6 | 43 |  | 
13 | NC(=O)Nc1sc(-c2ccccc2OC2CCNCC2)cc1C(N)=O | 821 | 35 | 1.8 | 17 |  | 
14 | C[N+]1(C)CCC(Oc2ccccc2-c2cc(C(N)=O)c(NC(N)=O)s2)C1 (racemic) | 903 | 46 | 4.3 | 53 |  | 
15 | NCCCOc1ccccc1-c1nc(C(N)=O)c(NC(N)=O)s1 | 739 | 23 | 1.5 | 14 |  | 
16 | CN(C)C(=N)N=C(N)N [METFORMIN] | 5.4 | 110 |  |  |  | 
17 | CCC(NC(C)C)C(O)c1ccc(O)c2[nH]c(=O)ccc12 (centres undefined) [PROCATEROL] | 140 | 14 | 1.9 | 11 |  | 
18 | NC(=O)Nc1sc(-c2ccccc2OC2CNC2)cc1C(N)=O | 641 | 63 | 2.2 | 11 |  | 
19 | N=C(N)NC(=O)c1nc(Cl)c(N)nc1N [AMILORIDE] | 1430 | 1660 | 74 | 76 |  | 
20 | CC(C)(C)NCC(O)c1ccc(O)c(CO)c1 (centres undefined) [ALBUTEROL] | 58 | 270 | 15 | 11 |  | 
21 | NC(=O)Nc1sc(-c2cccc(OC3CCNC3)c2)cc1C(N)=O (racemic) | 1352 | 21 | 1.6 | 68 |  | 
22 | Solute carrier family 22 member 1 (Homo sapiens) (protein) MPTVDDILEQVGESGWFQKQAFLILCLLSAAFAPICVGIVFLGFTPDHHCQSPGVAELSQRCGWSPAEELNYTVPGLGPAGEAFLGQCRRYEVDWNQSALSCVDPLASLATNRSHLPLGPCQDGWVYDTPGSSIVTEFNLVCADSWKLDLFQSCLNAGFLFGSLGVGYFADRFGRKLCLLGTVLVNAVSGVLMAFSPNYMSMLLFRLLQGLVSKGNWMAGYTLITEFVGSGSRRTVAIMYQMAFTVGLVALTGLAYALPHWRWLQLAVSLPTFLFLLYYWCVPESPRWLLSQKRNTEAIKIMDHIAQKNGKLPPADLKMLSLEEDVTEKLSPSFADLFRTPRLRKRTFILMYLWFTDSVLYQGLILHMGATSGNLYLDFLYSALVEIPGAFIALITIDRVGRIYPMAMSNLLAGAACLVMIFISPDLHWLNIIIMCVGRMGITIAIQMICLVNAELYPTFVRNLGVMVCSSLCDIGGIITPFIVFRLREVWQALPLILFAVLGLLAAGVTLLLPETKGVALPETMKDAENLGRKAKPKENTIYLKVQTSEPSGT |  |  |  |  | 140 | 
23 | Solute carrier family 22 member 2 (Homo sapiens) (protein) MPTTVDDVLEHGGEFHFFQKQMFFLLALLSATFAPIYVGIVFLGFTPDHRCRSPGVAELSLRCGWSPAEELNYTVPGPGPAGEASPRQCRRYEVDWNQSTFDCVDPLASLDTNRSRLPLGPCRDGWVYETPGSSIVTEFNLVCANSWMLDLFQSSVNVGFFIGSMSIGYIADRFGRKLCLLTTVLINAAAGVLMAISPTYTWMLIFRLIQGLVSKAGWLIGYILITEFVGRRYRRTVGIFYQVAYTVGLLVLAGVAYALPHWRWLQFTVSLPNFFFLLYYWCIPESPRWLISQNKNAEAMRIIKHIAKKNGKSLPASLQRLRLEEETGKKLNPSFLDLVRTPQIRKHTMILMYNWFTSSVLYQGLIMHMGLAGDNIYLDFFYSALVEFPAAFMIILTIDRIGRRYPWAASNMVAGAACLASVFIPGDLQWLKIIISCLGRMGITMAYEIVCLVNAELYPTFIRNLGVHICSSMCDIGGIITPFLVYRLTNIWLELPLMVFGVLGLVAGGLVLLLPETKGKALPETIEEAENMQRPRKNKEKMIYLQVQKLDIPLN |  |  |  |  |  | 60
